Laboratory results: US12201613B2 (priority 2020, dated 2025)

Experiments:
[1] = test system: SARS-CoV-2 (SARS-CoV-2/human/TWN/CGMH-CGU-01/2020); assay type: cell-based
[2] = test system: lysozyme-coated Pd-NTF electrodes; assay: Binding selectivity of S-protein to lysozyme-coated Pd-NTF electrode (EIS); settings: presence of peptide analogue
Description: (iii) lysozyme-coated Pd-electrode in the absence of peptide analogues; or […]

[3] = target: T1, SARS-CoV-2 S-protein-ACE2 binding (Homo sapiens, UniProt Q9BYF1, K631R); assay: EIS-based biosensing platform (ACE2-Pd-NTFE): modulation of S-protein-ACE2 binding; parameters: species or system SARS-CoV-2; human; settings: for suppression of S-protein-ACE2 interaction / maximum binding efficacy / ECmax S-protein (S-protein-ACE2 interaction at maximum S-protein concentration): 4 μg/mL ACEi; for suppression of S-protein-ACE2 interaction / maximum binding efficacy: at maximum S-protein concentration; for ECmax S-protein (S-protein-ACE2 interaction at maximum S-protein concentration): baseline 99.5%±11.0% (104.2%±4.8% for ramiprilat); for modulation effect on the S-protein-ACE2 binding: dose-dependent, 0.1 to 4 μg/mL
T1 construct: made in house

[4] = Binding selectivity of S-protein to plain Pd-NTF electrode (EIS); settings: presence of peptide analogue

Row | SMILES | E gene RNA in the media increased by [1] [%] | effect on binding patterns of S-protein to the lysozyme-coated Pd-NTF electrode [2] | suppression of S-protein-ACE2 interaction / maximum binding efficacy [3] | ECmax S-protein (S-protein-ACE2 interaction at maximum S-protein concentration) [3] [%] | modulation effect on the S-protein-ACE2 binding [3] | E gene RNA copies in the culture media reduced by [1] | effect on binding patterns of S-protein to the bare Pd-NTF electrode [4] | effect on S-protein-ACE2 binding at highest dose ([3]; 4 μg/mL)
1 | C[C@H](CS)C(=O)N1CCC[C@H]1C(=O)O [captopril] | 34.5 |  |  |  |  |  |  | 
2 | CCOC(=O)[C@H](CCc1ccccc1)N[C@@H](C)C(=O)N1CCC[C@H]1C(=O)O [enalapril] | 93.7 |  |  |  |  |  |  | 
3 | C[C@H](N[C@@H](CCc1ccccc1)C(=O)O)C(=O)N1CCC[C@H]1C(=O)O [enalaprilat] | 44.4 |  |  |  |  |  |  | 
4 | NCCCC[C@H](N[C@@H](CCc1ccccc1)C(=O)O)C(=O)N1CCC[C@H]1C(=O)O [lisinopril] | 54.2 | did not change the binding patterns |  |  |  |  |  | 
5 | CCC[C@H](N[C@@H](C)C(=O)N1[C@H](C(=O)O)C[C@@H]2CCCC[C@@H]21)C(=O)OCC [perindopril] |  |  | approximately 48% | 51.9±5.3 | dose-dependent and non-competitive inhibition | approximately 18.8% |  | 
6 | CCC[C@H](N[C@@H](C)C(=O)N1[C@H](C(=O)O)C[C@@H]2CCCC[C@@H]21)C(=O)O [perindoprilat] |  | did not change the binding patterns | 67% | 33.0±3.7 | antagonism effect is significantly enhanced | ~20.1% | did not change the binding patterns | 
7 | CCOC(=O)[C@H](CCc1ccccc1)N[C@@H](C)C(=O)N1[C@H](C(=O)O)C[C@@H]2CCC[C@@H]21 [ramipril] |  |  | approximately 42% | 57.1±11.4 | dose-dependent and non-competitive inhibition | 39.3% |  | 
8 | C[C@H](N[C@@H](CCc1ccccc1)C(=O)O)C(=O)N1[C@H](C(=O)O)C[C@@H]2CCC[C@@H]21 [ramiprilat] |  |  | 72% | 27.6±7.5 | antagonism effect is significantly enhanced | 36.4% |  | Near full inhibition
